Measured values: PMC6271944 (Molecules, 2014)

Key:
CYP2C9 = target: T1, CYP2C9 (Homo sapiens, UniProt P11712); assay: CYP inhibition in human liver microsomes, substrate cocktail, LC-MS/MS (diclofenac); format: in vitro ADME; conditions: metabolite 4-hydroxydiclofenac, read-out: IC50 for HLM, CYP2C9
T1 construct: Pooled human liver microsomes (HLM, LOT 32556) were purchased from BD Gentest Corporation; tissue BD Gentest Corporation LOT 32556; host or cells: pooled human liver microsomes
Excerpt: (§1) Positive controls (furafyline for CYP1A2, montelukast for CYP2C8, sulfaphenazole for CYP2C9, S-(+)-N-3-benzylnirvanol for CYP2C19, quinidine for CYP2D6, ketoconazole for CYP3A4) and specific substrates (phenacetin for CYP1A2, paclitaxel for CYP2C8, diclofenac for CYP2C9, S-mephenytoin for CYP2C19, dextromethorphan for CYP2D6, midazolam for CYP3A4) are consistent with our previous papers. The substrates were used at concentrations approximately equal to their respective Michaelis-Menten constant (Km) values: 10 μM phenacetin, 5 μM paclitaxel, 5 μM diclofenac, 200 μM S-mephenytoin, 5 μM dextromethorphan, and 2 μM midazolam. NADP^+ was added after a 15 min preincubation of all other components at 37 °C. After a given incubation time (30 min), the reactions were terminated by addition of 60 μL ice-cold acetonitrile containing gemfibrozil and buspirone as internal standards. Incubation samples were stored at −80 °C until used in liquid chromatography-tandem mass spectrometry (LC-MS/MS) analysis. The mixture was centrifuged at 3,500 rpm for 5 min. The supernatant was mixed with equal volume of a 1:1 mixture of methanol and water and 20 μL of the final mixture was used for LC-MS/ MS analysis. […]
(§2) The CYP inhibition potential were evaluated by measuring the formation of one or more metabolites of the test substrates. […]

CYP2D6 = target: T2, CYP2D6 (Homo sapiens, UniProt P10635); assay: CYP inhibition in human liver microsomes, substrate cocktail, LC-MS/MS (dextromethorphan); format: in vitro ADME; conditions: metabolite dextrorphan, read-out: IC50 for HLM, CYP2D6
T2 construct: Pooled human liver microsomes (HLM, LOT 32556) were purchased from BD Gentest Corporation; tissue BD Gentest Corporation LOT 32556; host or cells: pooled human liver microsomes
Excerpt: as §1, §2

CYP3A2 = target: T3, CYP3A2 (Rattus norvegicus, UniProt P05183); assay: CYP inhibition in rat liver microsomes, substrate cocktail, LC-MS/MS (midazolam); format: in vitro ADME; conditions: pH 7.4, probe midazolam 2 μM, read-out: IC50 for RLM, CYP3A2 (table row CYP3A4)
T3 sequence (P05183 1-504): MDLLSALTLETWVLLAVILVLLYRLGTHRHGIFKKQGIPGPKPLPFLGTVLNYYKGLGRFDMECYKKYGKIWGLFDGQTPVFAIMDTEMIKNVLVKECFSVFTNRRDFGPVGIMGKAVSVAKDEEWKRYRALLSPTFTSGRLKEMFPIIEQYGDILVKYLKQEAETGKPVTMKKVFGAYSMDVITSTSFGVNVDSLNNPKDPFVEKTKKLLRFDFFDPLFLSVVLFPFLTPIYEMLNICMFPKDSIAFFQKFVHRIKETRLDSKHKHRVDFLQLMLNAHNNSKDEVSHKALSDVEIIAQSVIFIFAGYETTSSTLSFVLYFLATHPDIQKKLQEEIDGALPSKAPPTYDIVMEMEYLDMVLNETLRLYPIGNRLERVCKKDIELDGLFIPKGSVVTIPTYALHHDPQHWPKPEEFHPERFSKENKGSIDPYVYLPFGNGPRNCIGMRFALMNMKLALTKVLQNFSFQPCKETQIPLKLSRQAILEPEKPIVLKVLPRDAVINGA
Excerpt: as §1, §2

UGT2B7 = tested on: UGT2B7; set-up: dose or concentration left out as unconfirmed; conditions: cited from earlier work

T1 sequence (P11712 whole entry): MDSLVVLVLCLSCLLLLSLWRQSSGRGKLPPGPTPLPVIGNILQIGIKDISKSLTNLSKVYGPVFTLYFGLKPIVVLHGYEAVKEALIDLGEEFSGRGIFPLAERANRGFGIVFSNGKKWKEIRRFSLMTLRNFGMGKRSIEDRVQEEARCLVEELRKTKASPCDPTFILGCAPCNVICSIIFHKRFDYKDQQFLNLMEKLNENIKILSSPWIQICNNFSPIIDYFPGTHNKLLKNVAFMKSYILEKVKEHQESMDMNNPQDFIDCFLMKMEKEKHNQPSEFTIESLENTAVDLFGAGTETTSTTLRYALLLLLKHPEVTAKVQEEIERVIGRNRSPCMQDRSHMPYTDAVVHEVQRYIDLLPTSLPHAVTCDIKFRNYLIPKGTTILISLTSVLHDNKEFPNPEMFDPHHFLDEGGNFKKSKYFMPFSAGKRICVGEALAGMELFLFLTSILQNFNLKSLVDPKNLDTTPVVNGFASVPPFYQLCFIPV
T2 sequence (P10635 whole entry): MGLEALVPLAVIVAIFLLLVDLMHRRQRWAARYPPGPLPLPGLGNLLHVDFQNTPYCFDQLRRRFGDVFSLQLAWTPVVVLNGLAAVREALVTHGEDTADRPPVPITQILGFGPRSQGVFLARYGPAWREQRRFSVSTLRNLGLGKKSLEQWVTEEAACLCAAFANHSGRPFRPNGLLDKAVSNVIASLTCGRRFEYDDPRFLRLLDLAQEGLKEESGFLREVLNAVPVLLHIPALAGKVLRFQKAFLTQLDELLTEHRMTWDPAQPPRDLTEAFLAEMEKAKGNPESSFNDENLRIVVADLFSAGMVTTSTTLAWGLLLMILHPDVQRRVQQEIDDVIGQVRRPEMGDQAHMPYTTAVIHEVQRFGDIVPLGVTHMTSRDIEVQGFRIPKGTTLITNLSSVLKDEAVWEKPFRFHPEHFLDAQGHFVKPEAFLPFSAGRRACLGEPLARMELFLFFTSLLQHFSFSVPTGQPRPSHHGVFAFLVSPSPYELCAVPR

In the case of `O=C(O)[C@H]1O[C@@H](Oc2cc3oc(-c4ccc(O)cc4)cc(=O)c3c(O)c2O)[C@H](O)[C@@H](O)[C@@H]1O` [scutellarin, Scutellarin], the IC50 (CYP2C9) is reported as greater than 100 µM, the IC50 (CYP2D6) is reported as greater than 100 µM and the IC50 at 30 min (CYP3A2) is reported as greater than 100 µM. For the same compound, the “inhibition towards the activity of UGT2B7” value (UGT2B7) was 73.8%.
